From PMC7203682, “Pharmacological Inhibition of MALT1 Protease Leads to a Progressive IPEX-Like Pathology” (Frontiers in Immunology, 2020)
Like-named read-outs stand apart in the source and are kept apart here.

Legend:
MALT1 = MALT1 (Canis lupus familiaris, UniProt A0A8I3RR14); assay: cell-based
Protocol: Human whole blood was obtained from healthy volunteers by venipuncture at the Novartis Basle Health care unit. Blood was pooled into two 50 ml Falcon tubes and filtered using a 100 μm (or 70 μm)-cell strainer. Serial dilutions of compounds (10 mM DMSO stock) were diluted again 1/10 in X-VIVO medium (Lonza Biosciences) and 500 μl of whole blood was mixed with 55 μl of X-VIVO/compound mixes and pre-incubated for 1 h at 37°C with shaking (∼600 rpm). After the pre-incubation time 200 μl of the blood/compound mixes in duplicates were transferred to a new flat bottom plates and PMA (final: 100 ng/ml)/anti-CD28 (final: 300 ng/ml) solution was added. Incubation was performed overnight at 37°C + 5% CO2. Blood plates were spun for 10 min at 470 g and 100 μl of the resulting serum was analyzed for IL-2 levels using MesoScale Discovery kits (MSD), according to the manufacturer’s protocol. […] Similar protocols were implemented for PBMC and blood from rat and dog species.

female Lewis rat = conditions: in vivo, 10 mg/kg
Protocol: Freund’s incomplete adjuvant (IFA, Difco, Detroit, United States) was mixed with porcine collagen type II (Chondrex, Redmond, United States) using a polytron on ice. The final solution consisted of 200 μg of collagen in 200 μl of IFA. […] of this was injected intradermally (i.d.) into the base of the tail of an isofluorane narcotized female Lewis rat. After 7 days, the isofluorane narcotized animal was boosted i.d. with a fresh batch of the immunization solution in an adjacent site at the base of the tail (100 μg in 100 μl). Paw swelling and body weight were taken three times per week as described below.
There were 10 animals per group for the compound treated groups and n = 9 rats for the vehicle group. […] Hind paws were taken for histological analysis.
There were five animals per group.
All animal studies were performed according to current Swiss animal protection laws, issued by the Cantonal Veterinary Office Basel-Stadt, Switzerland. Body weight of the animals was assessed regularly throughout the study. Mean values of groups were calculated. Scoring of the paw swelling was done on an arbitrary scale of 0–12 per rat, evaluating each hind paw in the front with 0–3 and in the ankle with 0–3, thus obtaining a maximal score of 6 per paw. The paw scores were summed up to obtain a score for each individual animal. The individual sum scores of all the animals were averaged and SEMs were calculated. The scoring system used was: 0 = no detectable sign of inflammation; 1, light swollen region; 2, more obviously swollen region; 3, ankylosis or severely swollen region.
Serum obtained at the end of the study, was diluted 1:10000 and 1: 100000.
Three-μm thick sections were stained with Giemsa and Safranin O (prophylactic setting) or hematoxylin and eosin (therapeutic setting).
Histopathological changes were blindly scored on a scale of 0 (normal) to 3 (severe changes). Following parameters were assessed: inflammatory cell infiltrates, joint damage and proteoglycan loss ([44]).

Foxp3+ Treg cells = assay: Treg frequency and functional markers in mice treated 12 days; type: in vivo, C57BL/6 mice; conditions: 8 mg/kg BID i.p. or 16 mg/kg QD i.p.
Protocol: Eight-week-old C57BL/6 mice (Charles River France) were treated from day 0 to day 12, either via p.o. […] (mepazine) dosing. Mepazine acetate (Chembridge, San Diego, CA, United States) was solubilized and dosed in PEG200/water (30/70 v/v). […] Some animals were euthanized at the end of the treatment period for analysis of lymphoid organs, while other animals were kept until day 19 to analyze the recovery of Treg cells after cessation of the treatment. […] Blood samples were collected along the treatment and recovery period to monitor changes in Tregs levels over time. Treg frequencies in blood and spleen as well as the expression of CTLA-4, TNFR2, KLRG1, and CD25 on Tregs was assessed by flow cytometry (see below). All animal studies were performed in accordance with the animal experimentation laws and guidelines laid down by the Swiss Federal and Cantonal Authorities. […] Splenocytes were analyzed at scheduled necropsies. […] CTLA-4 expression was assessed intra- and extracellularly.

[1] = blood compound concentrations in mice; type: in vivo, C57BL/6 mice; conditions: mouse; for concentration at 1 h: C57BL/6, blood, ip, read-out: [Mepazine] blood at 1h (peak); for [Mepazine] blood at 15h (trough): BQL: below quantification limit

Chain of MALT1 (A0A8I3RR14 1-857): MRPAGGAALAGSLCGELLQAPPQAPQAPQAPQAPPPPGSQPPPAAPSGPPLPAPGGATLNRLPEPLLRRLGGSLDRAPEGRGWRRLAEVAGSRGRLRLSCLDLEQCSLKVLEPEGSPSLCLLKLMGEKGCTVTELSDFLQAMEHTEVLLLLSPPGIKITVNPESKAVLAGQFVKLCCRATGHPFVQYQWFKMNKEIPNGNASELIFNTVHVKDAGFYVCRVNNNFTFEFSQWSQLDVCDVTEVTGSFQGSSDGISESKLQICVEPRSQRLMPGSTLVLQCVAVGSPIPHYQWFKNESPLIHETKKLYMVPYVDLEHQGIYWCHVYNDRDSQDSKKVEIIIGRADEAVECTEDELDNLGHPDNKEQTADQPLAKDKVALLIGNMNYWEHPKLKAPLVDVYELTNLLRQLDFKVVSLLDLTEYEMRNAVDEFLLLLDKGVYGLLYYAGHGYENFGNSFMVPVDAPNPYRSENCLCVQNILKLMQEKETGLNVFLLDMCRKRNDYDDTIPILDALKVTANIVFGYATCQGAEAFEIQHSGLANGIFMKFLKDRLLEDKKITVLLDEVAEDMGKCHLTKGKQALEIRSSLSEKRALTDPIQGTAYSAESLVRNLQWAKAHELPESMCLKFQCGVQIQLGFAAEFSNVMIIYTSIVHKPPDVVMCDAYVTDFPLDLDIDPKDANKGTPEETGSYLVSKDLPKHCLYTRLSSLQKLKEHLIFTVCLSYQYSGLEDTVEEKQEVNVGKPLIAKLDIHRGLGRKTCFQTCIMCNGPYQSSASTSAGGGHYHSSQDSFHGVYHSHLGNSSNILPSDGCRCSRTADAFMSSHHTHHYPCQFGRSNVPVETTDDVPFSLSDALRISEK

SMILES | IC50 (MALT1) | histo-pathological score of hind paw: Inflammation (female Lewis rat) | histo-pathological score of hind paw: Joint damage (female Lewis rat) | histo-pathological score of hind paw: Proteoglycan loss (female Lewis rat) | anti-collagen antibody production (female Lewis rat; po) | joint histology scores (female Lewis rat; po) | paw swelling (female Lewis rat; po) | expression of Treg activation markers (Foxp3+ Treg cells) | frequency of Treg cells (Foxp3+ Treg cells) | concentration at 1 h ([1]; 8 mg/kg BID i.p.) | concentration at 1 h ([1]; 16 mg/kg QD i.p.) | [Mepazine] blood at 15h (trough) ([1]; 8 mg/kg BID i.p.) | [Mepazine] blood at 15h (trough) ([1]; 16 mg/kg QD i.p.)
CO[C@@H](C)c1c(NC(=O)Nc2ccnc(C(F)(F)F)c2)cnc2cc(Cl)nn12 [MLT-943] | 92 nM | 0 | 0 | 0 | suppressed | normalized | fully prevented | – | – | – | – | – | –
CN1CCCC(CN2c3ccccc3Sc3ccccc32)C1 (stereo not shown) [mepazine] | – | – | – | – | – | – | – | impacted neither | impacted neither | 270 nM | 770 nM | BQL | BQL
